In patent publication US20120122896A1, “2,1,3-BENZOXADIAZOL DERIVATIVES FOR THE INHIBITION OF INFLUENZA A AND B VIRUS AND RESPIRATORY SYNCYTIAL VIRUS REPLICATION” (PIKE PHARMA GMBH, priority 2009, published 2012):
pIC50: −log10 of the molar value. Like-named read-outs stand apart in the source and are kept apart here.

What was measured:
[1] = molecular target: interaction between PB1 and PA (Influenza A virus, UniProt P03433); assay: biochemical; format: binding; conditions: for IC50: calculated from inhibition at maximum obtainable concentration where solubility too low, read-out: IC50 [μM] (ELISA); for inhibition at 1000 µM: highest concentration used, read-out: Max. Inhibition (ELISA) at 1000 μM
RSV (Long strain) = assay: RSV induced cell death reduction in HEp-2 cells; format: cell-based, respiratory syncytial virus; conditions: for RSV activity, Maximum inhibition (in words): serial dilution 100 to 0.14 μM, 72 h; for inhibition at 33 µM: HEp-2, read-out: RSV activity, Maximum inhibition
[2] = human respiratory syncytial virus, HEp-2
[3] = human respiratory syncytial virus, HEp-2, read-out: RSV activity, Maximum inhibition
[4] = human respiratory syncytial virus

For COc1ccc(CSc2ccc([N+](=O)[O-])c3nonc23)cc1 [PKE060, 4-[(4-methoxybenzyl)thio]-7-nitro-2,1,3-benzoxadiazole], which “Active in ELISA” value ([1]; prescreening) is on record?
The value was “Yes”.

How did the IC50 [1] turn out when COc1ccc(S(=O)(=O)OCCSc2ccc([N+](=O)[O-])c3nonc23)cc1 [PKE061, 2-[(7-nitro-2,1,3-benzoxadiazol-4-yl)thio]ethyl 4-methoxybenzene-1-sulfonate] was run?
Its IC50 is > 1000 µM.

And the inhibition at 1000 µM [1]?
Its inhibition at 1000 µM is 37%.

What about the “Active in ELISA” value ([1]; prescreening) of the same molecule?
Its value is “Yes”.

And the “RSV activity, Maximum inhibition (in words)” value (RSV (Long strain))?
Its value is “inactive”.

Which results are given for Cc1ccc(Sc2ccc([N+](=O)[O-])c3nonc23)cc1 [PKE068, 4-[(4-methylphenyl)thio]-7-nitro-2,1,3-benzoxadiazole]?
IC50 [1]: > 1000 µM; inhibition at 1000 µM [1]: 46%; Active in ELISA ([1]; prescreening): Yes

How did the “Active in ELISA” value ([1]; prescreening) turn out when COc1ccc(Nc2ccc([N+](=O)[O-])c3nonc23)cc1 [PKE069, N4-(4-methoxyphenyl)-7-nitro-2,1,3-benzoxadiazol-4-amine] was run?
The value was “No”.

What about the “RSV activity, Maximum inhibition (in words)” value (RSV (Long strain)) of the same molecule?
The value was “inactive”.

With O=[N+]([O-])c1ccc(Nc2ccc(F)cc2)c2nonc12 [PKE070, N4-(4-fluorophenyl)-7-nitro-2,1,3-benzoxadiazol-4-amine] as the molecule, how does the “Active in ELISA” value ([1]; prescreening) read?
Its value is “No”.

And the “inhibition of RSV replication (summary in words)” value (from here on “inhibition of RSV replication”) (RSV (Long strain))?
Its value is “effective”.

What about the pIC50 (RSV (Long strain); [2]) of the same molecule?
Its pIC50 is 5.40.

What about the inhibition at 11 µM (RSV (Long strain); [3]) of the same molecule?
Its inhibition at 11 µM is 75%.

Which results are given for O=[N+]([O-])c1ccc(Nc2cccc(F)c2)c2nonc12 [PKE071, N4-(3-fluorophenyl)-7-nitro-2,1,3-benzoxadiazol-4-amine]?
Active in ELISA ([1]; prescreening): No; inhibition of RSV replication (summary in words) (RSV (Long strain)): effective; pIC50 (RSV (Long strain); [2]): 5.40; inhibition at 11 µM (RSV (Long strain); [3]): 73%

Which results are given for O=[N+]([O-])c1ccc(N2CCCC2)c2nonc12 [PKE072, 4-nitro-7-tetrahydro-1H-pyrrol-1-yl-2,1,3-benzoxadiazole]?
Active in ELISA [1]: No; inhibition of RSV replication (summary in words) (RSV (Long strain)): effective; inhibition at 33 µM (RSV (Long strain); [4]): 44%

Which results are given for O=[N+]([O-])c1ccc(NCc2cccs2)c2nonc12 [PKE073, N4-(2-thienylmethyl)-7-nitro-2,1,3-benzoxadiazol-4-amine]?
Active in ELISA [1]: No; inhibition of RSV replication (summary in words) (RSV (Long strain)): effective; inhibition at 33 µM (RSV (Long strain); [4]): 42%

How did the “Active in ELISA” value ([1]; prescreening) turn out when Cc1ccc(Nc2ccc([N+](=O)[O-])c3nonc23)cc1 [PKE074, N4-(4-methylphenyl)-7-nitro-2,1,3-benzoxadiazol-4-amine] was run?
The value was “No”.

For O=[N+]([O-])c1ccc(Sc2ccc(Cl)cc2Cl)c2nonc12 [PKE075, 4-[(2,4-dichlorophenyl)thio]-7-nitro-2,1,3-benzoxadiazole], which IC50 [1] is on record?
The IC50 was > 1000 µM.

What about the inhibition at 1000 µM [1] of the same molecule?
The inhibition at 1000 µM was 35%.

What about the “Active in ELISA” value ([1]; prescreening) of the same molecule?
Its value is “Yes”.

For O=[N+]([O-])c1ccc(SCCO)c2nonc12 [PKE076, 2-[(7-nitro-2,1,3-benzoxadiazol-4-yl)thio]ethan-1-ol], which “RSV activity, Maximum inhibition (in words)” value (RSV (Long strain)) is on record?
The value was “inactive”.

How did the IC50 [1] turn out when Cc1ccc(CSc2ccc([N+](=O)[O-])c3nonc23)cc1 [PKE077, 4-[(4-methylbenzyl)thio]-7-nitro-2,1,3-benzoxadiazole] was run?
The IC50 was > 1000 µM.

What about the inhibition at 1000 µM [1] of the same molecule?
Its inhibition at 1000 µM is 33%.

What about the “Active in ELISA” value ([1]; prescreening) of the same molecule?
The value was “Yes”.

And the “RSV activity, Maximum inhibition (in words)” value (RSV (Long strain))?
Its value is “inactive”.

What does the source list for Cc1cccc(Nc2ccc([N+](=O)[O-])c3nonc23)c1 [PKE078, N4-(3-methylphenyl)-7-nitro-2,1,3-benzoxadiazol-4-amine]?
Active in ELISA ([1]; prescreening): No; inhibition of RSV replication (summary in words) (RSV (Long strain)): effective; pIC50 (RSV (Long strain); [2]): 5.22; inhibition at 11 µM (RSV (Long strain); [3]): 56%

What does the source list for O=[N+]([O-])c1ccc(Sc2cccc(Cl)c2)c2nonc12 [PKE080, 4-[(3-chlorophenyl)thio]-7-nitro-2,1,3-benzoxadiazole]?
IC50 [1]: 60 µM; Active in ELISA ([1]; prescreening): Yes

Which “Active in ELISA” value ([1]; prescreening) does the source give for O=C(OCCSc1ccc([N+](=O)[O-])c2nonc12)c1ccc(Cl)cc1Cl [PKE081, 2-[(7-nitro-2,1,3-benzoxadiazol-4-yl)thio]ethyl 2,4-dichlorobenzoate] here?
Its value is “No”.

What does the source list for COc1ccc(C(=O)OCCSc2ccc([N+](=O)[O-])c3nonc23)cc1 [PKE082, 2-[(7-nitro-2,1,3-benzoxadiazol-4-yl)thio]ethyl-4-methoxybenzoate]?
IC50 [1]: 100 µM; Active in ELISA ([1]; prescreening): Yes

What does the source list for O=C(OCCSc1ccc([N+](=O)[O-])c2nonc12)c1ccccc1 [PKE083, 2-[(7-nitro-2,1,3-benzoxadiazol-4-yl)thio]ethyl benzoate]?
Active in ELISA ([1]; prescreening): No; RSV activity, Maximum inhibition (in words) (RSV (Long strain)): inactive

What does the source list for Nc1nc(Sc2ccc([N+](=O)[O-])c3nonc23)c2[nH]cnc2n1 [PKE110, 6-[(4-nitro-2,1,3-benzoxadiazol-7-yl)sulfanyl]-7H-purin-2-amine]?
Active in ELISA ([1]; prescreening): No; RSV activity, Maximum inhibition (in words) (RSV (Long strain)): inactive

Which results are given for O=[N+]([O-])c1ccc(Nc2ccccc2)c2nonc12 [PKE118, 4-nitro-N-phenyl-2,1,3-benzoxadiazol-7-amine]?
Active in ELISA ([1]; prescreening): No; inhibition of RSV replication (summary in words) (RSV (Long strain)): effective; inhibition at 11 µM (RSV (Long strain); [3]): 44%

Which “inhibition of RSV replication” value (RSV (Long strain)) does the source give for COc1ccc(Nc2ccc([N+](=O)[O-])c3nonc23)cc1 [PKE119, N-(4-methoxyphenyl)-4-nitro-2,1,3-benzoxadiazol-7-amine] here?
The value was “effective”.

What about the inhibition at 11 µM (RSV (Long strain); [3]) of the same molecule?
Its inhibition at 11 µM is 21%.

With O=[N+]([O-])c1ccc(Nc2ccc(Cl)cc2)c2nonc12 [PKE120, N-(4-chlorophenyl)-4-nitro-2,1,3-benzoxadiazol-7-amine] as the molecule, how does the “Active in ELISA” value ([1]; prescreening) read?
Its value is “No”.

And the “inhibition of RSV replication” value (RSV (Long strain))?
The value was “effective”.

What about the pIC50 (RSV (Long strain); [2]) of the same molecule?
Its pIC50 is 5.70.

What about the inhibition at 3.7 µM (RSV (Long strain); human respiratory syncytial virus, HEp-2, at 3.7 μM, read-out: RSV activity, Maximum inhibition) of the same molecule?
The inhibition at 3.7 µM was 67%.

How did the “Active in ELISA” value [1] turn out when COc1ccc(CNc2ccc([N+](=O)[O-])c3nonc23)cc1 [PKE130, N-[(4-methoxyphenyl)methyl]-4-nitro-2,1,3-benzoxadiazol-7-amine] was run?
The value was “No”.

And the “inhibition of RSV replication” value (RSV (Long strain))?
Its value is “effective”.

And the inhibition at 33 µM (RSV (Long strain); [4])?
Its inhibition at 33 µM is 48%.

With Cc1ccccc1Nc1ccc([N+](=O)[O-])c2nonc12 [PKE131, N-(2-methylphenyl)-4-nitro-2,1,3-benzoxadiazol-7-amine] as the molecule, how does the “Active in ELISA” value ([1]; prescreening) read?
The value was “No”.

What about the “inhibition of RSV replication” value (RSV (Long strain)) of the same molecule?
Its value is “effective”.

And the inhibition at 11 µM (RSV (Long strain); [3])?
Its inhibition at 11 µM is 48%.

O=[N+]([O-])c1ccc(N2CCN(Cc3ccccc3)CC2)c2c1no[n+]2[O-] [PKE133, 4-nitro-1-oxido-7-[4-(phenylmethyl)piperazin-1-yl]-2,1,3-benzoxadiazol-1-ium] was tested. Which “Active in ELISA” value ([1]; prescreening) did it give?
The value was “No”.

And the “RSV activity, Maximum inhibition (in words)” value (RSV (Long strain))?
The value was “inactive”.

How did the “Active in ELISA” value ([1]; prescreening) turn out when CCCCN1CCN(c2ccc([N+](=O)[O-])c3no[n+]([O-])c23)CC1 [PKE134, 7-(4-butylpiperazin-1-yl)-4-nitro-1-oxido-2,1,3-benzoxadiazol-1-ium] was run?
Its value is “No”.

And the “RSV activity, Maximum inhibition (in words)” value (RSV (Long strain))?
Its value is “inactive”.

O=[N+]([O-])c1ccc(N2CCN(c3ccccc3)CC2)c2nonc12 [PKE135, 4-nitro-7-(4-phenylpiperazin-1-yl)-2,1,3-benzoxadiazole] was tested. Which “Active in ELISA” value ([1]; prescreening) did it give?
The value was “No”.

And the “RSV activity, Maximum inhibition (in words)” value (RSV (Long strain))?
The value was “inactive”.

How did the “Active in ELISA” value ([1]; prescreening) turn out when CCN(CC)CCCNc1ccc([N+](=O)[O-])c2no[n+]([O-])c12 [PKE136, N,N-diethyl-N′-(4-nitro-1-oxido-2,1,3-benzoxadiazol-1-ium-7-yl)propane-1,3-diamine] was run?
Its value is “No”.

And the “RSV activity, Maximum inhibition (in words)” value (RSV (Long strain))?
The value was “inactive”.

Which results are given for O=[N+]([O-])c1ccc(Sc2ncnc3nc[nH]c23)c2nonc12 [PKE139, 4-nitro-7-(7H-purin-6-ylsulfanyl)-2,1,3-benzoxadiazole]?
Active in ELISA ([1]; prescreening): No; RSV activity, Maximum inhibition (in words) (RSV (Long strain)): inactive

O=c1[nH]nc(Sc2ccccc2)c2nncn12 [PKE217, 8-phenylsulfanyl-6H-[1,2,4]triazolo[4,3-d][1,2,4]triazin-5-one] was tested. Which “Active in ELISA” value ([1]; prescreening) did it give?
Its value is “No”.
